One data set concerns diabetic neuropathy model (streptozotocin-injected rats). As to the kind of experiment: Motor nerve conduction velocity in STZ diabetic neuropathy model rats. Type of data set: in vivo. To be noted: male SD rats, STZ 70 mg/kg diabetic neuropathy model; 3 mg/kg orally in 0.5% methyl cellulose; average value ± SD (n = 7–8). The procedure: (§1) To 6-week-old male SD rats (CLEA Japan, Inc.) was injected 70 mg/kg body weight of streptozotocin (STZ) from the tail vein to form a diabetic neuropathy model.
(§2) After raising for one month, 3 mg/kg of compound (compound of Example 5 or Example 226) suspended in 0.5% methyl cellulose was orally administered to the rats. For the control group, a 0.5% aqueous methyl cellulose suspension free of the aforementioned compound was administered.
After the completion of the administration, the rats were anesthetized with Nembutal, the body temperature was maintained at a constant level using a hot plate at 37° C. and a desk lamp, needle electrodes were placed on the above-knee region and ankle, stimulated using Neuropack 2 (NIHON KOHDEN CORPORATION) principally at 1.6 mA and the evoked potential was detected from the plantar part. The Motor Nerve Conduction Velocity (MNCV) was calculated from the distance between different electrodes and latency difference of waveforms.
On to `CCOP(=O)(Cc1ccc(NC(=O)CCc2oc(-n3cnc4ccccc43)nc2-c2ccc(Cl)cc2)cc1)OCC` [Example 5, 3-[2-(1H-benzimidazol-1-yl)-4-(4-chlorophenyl)-5-oxazolyl]-N-[4-(diethylphosphonomethyl)phenyl]propionamide], for which the “MNCV (Motor Nerve Conduction Velocity)” value worked out at 52.7 ± 5.0 m/s.

In the case of `CCOP(=O)(Cc1ccc(NC(=O)CCCc2oc(-n3cnc4ccccc43)nc2-c2ccc(Cl)cc2)cc1)OCC` [Example 226, 4-[2-(1H-benzimidazol-1-yl)-4-(4-chlorophenyl)-5-oxazolyl]-N-[(4-diethylphosphonomethyl)phenyl]butanamide], the “MNCV (Motor Nerve Conduction Velocity)” value was 52.3 ± 2.4 m/s.

A further data set has as its system BDNF. As to the kind of experiment: BDNF content of ischiadic nerve of STZ diabetic neuropathy model rats (sandwich ELISA). Type of data set: in vivo. To be noted: male SD rats, STZ 70 mg/kg diabetic neuropathy model, 3 mg/kg orally in 0.5% methyl cellulose, ischiadic nerve supernatant, average value ± SD (n = 7–8). Here is the method: as §1, §2
After the evaluation of the nerve conduction velocity, the ischiadic nerve was taken from the rat, a lysis buffer (0.1M Tris-HCl buffer containing 1M sodium chloride, 2% BSA, 2 mM EDTA, 80 trypsin unit/L of aprotinin, pH 7.6) in a 20-fold amount of the wet weight of ischiadic nerve was added and the mixture was subjected to ultrasonication and centrifugal separation (15,000 rpm, 60 min.), and the BDNF content of the supernatant was measured.
The BDNF content was measured by sandwich ELISA Method using anti-BDNF polyclonal antibody (Promega) and biotinated anti-BDNF antibody (G1641, Promega). The results are shown in [Table 20].
(An ELISA detects its analyte on a solid surface through an enzyme-linked reagent.)
For `CCOP(=O)(Cc1ccc(NC(=O)CCc2oc(-n3cnc4ccccc43)nc2-c2ccc(Cl)cc2)cc1)OCC` [Example 5, 3-[2-(1H-benzimidazol-1-yl)-4-(4-chlorophenyl)-5-oxazolyl]-N-[4-(diethylphosphonomethyl)phenyl]propionamide], the “BDNF (content of ischiadic nerve)” value came out at 2.6 ± 0.7 ng/g.

As for `CCOP(=O)(Cc1ccc(NC(=O)CCCc2oc(-n3cnc4ccccc43)nc2-c2ccc(Cl)cc2)cc1)OCC` [Example 226, 4-[2-(1H-benzimidazol-1-yl)-4-(4-chlorophenyl)-5-oxazolyl]-N-[(4-diethylphosphonomethyl)phenyl]butanamide], the “BDNF (content of ischiadic nerve)” value was determined as 3.6 ± 0.4 ng/g.

Test system in the next data set: not given
Test: not given
Details: not given
As to `CCOP(=O)(Cc1ccc(NC(=O)CCc2oc(-n3cnc4ccccc43)nc2-c2ccc(Cl)cc2)cc1)OCC` [Example 5, 3-[2-(1H-benzimidazol-1-yl)-4-(4-chlorophenyl)-5-oxazolyl]-N-[4-(diethylphosphonomethyl)phenyl]propionamide], the melting point (commonly the temperature, or range, at which the solid turns liquid) is 159 to 160 °C.

Turning to `CCOP(=O)(Cc1ccc(NC(=O)CCCCCc2sc(-n3cnc4ccccc43)nc2-c2ccc(Cl)cc2)cc1)OCC`, the melting point lay in the range of 149 to 151 °C.

`CCOP(=O)(Cc1ccc(NC(=O)CCc2oc(-c3cccs3)nc2-c2ccc(Cl)cc2)cc1)OCC` had a melting point of 164 to 165 °C.

`O=C(CCCc1oc(-n2cnc3ccccc32)nc1-c1ccc(Cl)cc1)NCc1cc(Br)ccc1F` [Example 195, 4-[2-(1H-benzimidazol-1-yl)-4-(4-chlorophenyl)-5-oxazolyl]-N-(5-bromo-2-fluorobenzyl)butanamide] had a melting point of 196 to 198 °C.

As for `COc1ccc(-c2nc(-n3cnc4ccccc43)oc2CCC(=O)N2CCC(O)CC2)cc1` [Example 248, 1-(3-[2-(1H-benzoimidazol-1-yl)-4-(4-methoxyphenyl)-5-oxazolyl]propanoyl)-4-piperidinol], the melting point was 161 to 162 °C.

With `CN(C)c1ccc(CNC(=O)CCc2oc(-n3cnc4ccccc43)nc2-c2ccc(Cl)cc2)cc1` [Example 135, 3-[2-(1H-benzimidazol-1-yl)-4-(4-chlorophenyl)-5-oxazolyl)-N-[4-(dimethylamino)benzyl]propionamide], the melting point was in the range of 184 to 185 °C.

Regarding `O=C(CCc1oc(-n2cnc3ccccc32)nc1-c1ccc(Cl)cc1)NCc1cccc(Br)c1` [Example 171, 3-[2-(1H-benzimidazol-1-yl)-4-(4-chlorophenyl)-5-oxazolyl]-N-(3-bromobenzyl)propionamide], the melting point is 181 to 183 °C.

In turn, `CCOP(=O)(OCC)C(F)(F)c1ccc(NC(=O)CCc2oc(-n3cnc4ccccc43)nc2-c2ccc(Cl)cc2)cc1` returned a melting point of 155 to 156 °C.

Turning to `O=C(CCc1oc(-n2cnc3ccccc32)nc1-c1ccc(Cl)cc1)Nc1ccc(CN2CCCCC2)cc1` [Example 88, 3-[2-(1H-benzimidazol-1-yl)-4-(4-chlorophenyl)-5-oxazolyl]-N-{4-[(1-piperidinyl)methyl]phenyl}propionamide], the melting point lay in the range of 194 to 195 °C.

`CCOP(=O)(CCc1ccc(NC(=O)CCCc2oc(-n3cnc4ccccc43)nc2-c2ccc(Cl)cc2)cc1)OCC` returned a melting point of 116 to 117 °C.

On to `CCOP(=O)(Cc1ccc(NC(=O)CCc2oc(N3CCOCC3)nc2-c2ccc(Cl)cc2)cc1)OCC`, for which the melting point was 186 to 187 °C.

`O=C(CCc1oc(-n2cnc3ccccc32)nc1-c1ccc(Cl)cc1)N1CCS(=O)(=O)CC1` [Example 194, 4-{3-[2-(1H-benzimidazol-1-yl)-4-(4-chlorophenyl)-5-oxazolyl]propanoyl}thiomorpholine-1,1-dioxide] gave a melting point of 227 to 228 °C.

`CCOP(=O)(Cc1ccc(NC(=O)CCCCc2sc(-n3cnc4ccccc43)nc2-c2ccc(Cl)cc2)cc1)OCC` displayed a melting point of 168 to 169 °C.

Molecule `CCOP(=O)(Cc1ccc(NC(=O)CCc2sc(NC(=O)c3ccccn3)nc2-c2ccc(Cl)cc2)cc1)OCC` displayed a melting point of 184 to 185 °C.

In turn, `CCOP(=O)(Cc1ccc(NC(=O)CCc2oc(Cl)nc2-c2ccc(Cl)cc2)cc1)OCC` came in with a melting point of 137 to 138 °C.

With `COC(=O)c1ccc(NC(=O)CCc2oc(-c3ccccc3)nc2-c2ccc(Cl)cc2)cc1` [Example 42, 3-[4-(4-chlorophenyl)-2-phenyl-5-oxazolyl]-N-[4-(methoxycarbonyl)phenyl]propionamide], the melting point is 198 to 200 °C.

As for `CCOP(=O)(Cc1cccc(NC(=O)CCCc2oc(-n3cnc4ccccc43)nc2-c2ccc(Cl)cc2)c1)OCC`, the melting point was 135 to 136 °C.

For `Cc1ccc(CNC(=O)CCc2oc(-c3ccccc3)nc2-c2ccc(Cl)cc2)cc1` [Example 166, 3-[4-(4-chlorophenyl)-2-phenyl-5-oxazolyl]-N-(4-methylbenzyl)propionamide], the melting point was 193 to 194 °C.

For the molecule `CCOP(=O)(Cc1ccc(NC(=O)CCc2oc(C)nc2-c2ccc(Cl)cc2)cc1)OCC`, the melting point lay within 155 to 156 °C.

`CCCc1nc(-c2ccc(Cl)cc2)c(CCC(=O)Nc2ccc(CP(=O)(OCC)OCC)cc2)o1` had a melting point of 108 to 109 °C.

Molecule `CCOP(=O)(OCC)c1ccc(NC(=O)CCc2sc(-c3ccccc3)nc2-c2ccc(Cl)cc2)cc1` displayed a melting point of 186 to 187 °C.

`O=C(CCc1oc(-n2cnc3ccccc32)nc1-c1ccc(Cl)cc1)NCc1ccccc1` [Example 132, 3-[2-(1H-benzimidazol-1-yl)-4-(4-chlorophenyl)-5-oxazolyl]-N-benzylpropionamide] returned a melting point of 205 to 206 °C.

In turn, `CCOP(=O)(Cc1ccc(NC(=O)CCc2sc(N)nc2-c2ccc(Cl)cc2)cc1)OCC` showed a melting point of 177 to 178 °C.
